# The NIST ThermoML archive (doi:10.1021/acs.jced.8b00168)
# Where “and” joins values, the source holds several entries; their conditions need not be identical. Equal entries are not always repeated. ± gives the expanded uncertainty stated by the source.
# Assays:
# [1] = Liquid, DSC
# [2] = Boiling temperature at pressure P; conditions: Liquid, DSC
smiles,measurement,setting,value
CCCCCCCCCCCCCC(=O)OC [methyl tetradecanoate],vapor or sublimation pressure,[1]; 437.72 K,1.72 ± 0.19 kPa
"CCCCCCCCC(=O)OCC(O)CO (configuration not stated) [2,3-dihydroxypropyl nonanoate]",vapor or sublimation pressure,[1]; 478.88 K,1.69 ± 0.19 kPa
CCCCCCCCCCCCCCCCO [1-hexadecanol],vapor or sublimation pressure,[1]; 462.29 K,1.73 ± 0.17 kPa and 1.72 ± 0.17 kPa
CCCCCCCCCCCCCCCCCCO [1-octadecanol],vapor or sublimation pressure,[1]; 483.46 K,1.73 ± 0.19 kPa
CCCCCCCCC(=O)OCC(CO)OC(=O)CCCCCCCC (configuration not stated) [dinonanoin],Boiling temperature at pressure P,[2]; 0.54 kPa,231.07 ± 2.4 °C
same,Boiling temperature at pressure P,[2]; 1.42 kPa,253.1 ± 3.1 °C
same,Boiling temperature at pressure P,[2]; 1.74 kPa,258.40 ± 2.4 °C
same,Boiling temperature at pressure P,[2]; 2.14 kPa,263.86 ± 2.6 °C
same,Boiling temperature at pressure P,[2]; 2.63 kPa,269.97 ± 2.8 °C
same,vapor or sublimation pressure,[1]; 532.03 K,1.7 ± 0.19 kPa
CCCCCCCCCCCCCCCCCCCCCCCCCCCC [octacosane],vapor or sublimation pressure,[1]; 550.62 K,1.7 ± 0.17 kPa
"CCCC(=O)OCC(COC(=O)CCC)OC(=O)CCC [1,2,3-propanetriyl tributanoate]",vapor or sublimation pressure,[1]; 459.56 K,1.69 ± 0.19 kPa
